Experimental data taken from BindingDB's records for patent US11566007 (Revolution Medicines, 2023).

Target: GTPase KRas [G12C] (Homo sapiens, UniProt P01116, G12C)
Test: Biochemical Assay
Description: The purpose of this biochemical assay is to measure the ability of test compounds to covalently label nucleotide-loaded K-Ras isoforms. […] Analysis of raw data may be carried out using Waters MassLynx MS software, with % bound calculated from the deconvoluted protein peaks for labeled and unlabeled K-Ras.

GTPase KRas [G12C], sequence (P01116 whole entry G12C): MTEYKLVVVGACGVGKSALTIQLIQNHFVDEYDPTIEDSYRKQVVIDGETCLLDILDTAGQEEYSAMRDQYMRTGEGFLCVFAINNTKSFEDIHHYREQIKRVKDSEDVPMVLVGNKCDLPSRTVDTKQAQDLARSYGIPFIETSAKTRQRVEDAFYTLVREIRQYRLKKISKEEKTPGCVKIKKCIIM

| IC50 | SMILES |
| --- | --- |
| in the range around 550 nM | C=CC(=O)N1CC[C@H](C(=O)N(C)[C@H](C(=O)N[C@H]2Cc3cc(O)cc(c3)-c3ccc4c(c3)c(c(-c3ccccc3CCOC)n4CC)CC(C)(C)COC(=O)[C@@H]3CCCN(N3)C2=O)C2CCOCC2)C1 [US11566007, Example A6] |
| in the range around 550 nM | C=CC(=O)N1CC[C@H](C(=O)N(C)[C@H](C(=O)N[C@H]2Cc3cc(O)cc(c3)-c3ccc4c(c3)c(c(-c3ccc(CN5CCCC5)cc3)n4CC)CC(C)(C)COC(=O)[C@@H]3CCCN(N3)C2=O)C(C)C)C1 [US11566007, Example A10] |
| in the range around 550 nM | C=CC(=O)N1CCC(F)(C(=O)N(C)[C@H](C(=O)N[C@H]2Cc3cc(O)cc(c3)-c3ccc4c(c3)c(c(-c3ccccc3CCOC)n4CC)CC(C)(C)COC(=O)[C@@H]3CCCN(N3)C2=O)C(C)C)CC1 [US11566007, Example A11] |
| in the range around 550 nM | C=CC(=O)N1CCC(C(=O)N(C)[C@H](C(=O)N[C@H]2Cc3cc(O)cc(c3)-c3ccc4c(c3)c(c(-c3ccccc3CCOC)n4CC)CC(C)(C)COC(=O)[C@@H]3CCCN(N3)C2=O)C(C)C)CC1 [US11566007, Example A14] |
| in the range around 550 nM | C=CC(=O)N1CC[C@H](C(=O)N(C)[C@H](C(=O)N[C@H]2Cc3cc(O)cc(c3)-c3ccc4c(c3)c(c(-c3ccccc3OC)n4CC)CC(C)(C)COC(=O)[C@@H]3CCCN(N3)C2=O)C(C)C)C1 [US11566007, Example A17] |
| in the range around 55 nM | C=CC(=O)N1CC[C@H](C(=O)N(C)[C@H](C(=O)N[C@H]2Cc3cc(O)cc(c3)-c3ccc4c(c3)c(c(-c3ccccc3[C@@H](C)OC)n4CC)CC(C)(C)COC(=O)[C@@H]3CCCN(N3)C2=O)C(C)C)C1 [US11566007, Example A29] |
| in the range around 55 nM | C=CC(=O)N1CC2(CCN([C@H](C(=O)N[C@H]3Cc4cc(O)cc(c4)-c4ccc5c(c4)c(c(-c4ccccc4CCOC)n5CC)CC(C)(C)COC(=O)[C@@H]4CCCN(N4)C3=O)C(C)C)C2=O)C1 [US11566007, Example A31] |

The next lines start with the molecule.

| SMILES | IC50 |
| --- | --- |
| C=CC(=O)N1CC[C@H](C(=O)N(C)[C@H](C(=O)N[C@H]2Cc3cc(O)cc(c3)-c3ccc4c(c3)c(c(-c3ccc(CN5CC[C@@H](O)C5)cc3)n4CC)CC(C)(C)COC(=O)[C@@H]3CCCN(N3)C2=O)C(C)C)C1 [US11566007, Example A1] | in the range around 550 nM |
| C=CC(=O)N1CC[C@H](C(=O)N(C)[C@H](C(=O)N[C@H]2Cc3cc(OC(=O)CCN4CCN(C)CC4)cc(c3)-c3ccc4c(c3)c(c(-c3ccccc3CCOC)n4CC)CC(C)(C)COC(=O)[C@@H]3CCCN(N3)C2=O)C(C)C)C1 [US11566007, Example A7] | in the range around 550 nM |
| C=CC(=O)N1CC[C@H](C(=O)N(C)[C@H](C(=O)N[C@H]2Cc3cc(OC(=O)CN)cc(c3)-c3ccc4c(c3)c(c(-c3ccccc3CCOC)n4CC)CC(C)(C)COC(=O)[C@@H]3CCCN(N3)C2=O)C(C)C)C1 [US11566007, Example A8] | in the range around 550 nM |
| C=CC(=O)N1CCC(F)(C(=O)N(C)[C@H](C(=O)N[C@H]2Cc3cc(O)cc(c3)-c3ccc4c(c3)c(c(-c3ccccc3CN(C)C)n4CC)CC(C)(C)COC(=O)[C@@H]3CCCN(N3)C2=O)C(C)C)CC1 [US11566007, Example A20] | in the range around 55 nM |
| C=CC(=O)N1CC[C@H](C(=O)N(C)[C@H](C(=O)N[C@H]2Cc3cc(O)cc(c3)-c3ccc4c(c3)c(c(-c3cccc(CN(C)C)c3)n4CC)CC(C)(C)COC(=O)[C@@H]3CCCN(N3)C2=O)C(C)C)C1 [US11566007, Example A30] | in the range around 550 nM |
| C=CC(=O)N1CC[C@H](C(=O)N(C)[C@H](C(=O)N[C@H]2Cc3cc(O)cc(c3)-c3ccc4c(c3)c(c(-c3ccc(C5CCN(C)CC5)cc3)n4CC)CC(C)(C)COC(=O)[C@@H]3CCCN(N3)C2=O)C(C)C)C1 [US11566007, Example A39] | in the range around 550 nM |
